Experiment in all cases: ≥ marks a high value that may be exact or a test limit, other limits are often not marked, values filed in µg/mL are converted to µM
In test [1] the test system is Escherichia coli ATCC 25922.
Test [2] deals with Staphylococcus aureus ATCC 29213.
Test [3] deals with Pseudomonas aeruginosa ATCC 27853.
A further test concerns Escherichia coli.
For another test, the system named is Staphylococcus aureus.

In brackets after ≈: the same amount, converted by molar mass.

Take `CC(=O)N[C@@H](CC(C)C)C(=O)N[C@@H](CCCCN)C(=O)N[C@@H](CCCCN)C(=O)N1CCC[C@H]1C(=O)N[C@@H](CC(C)C)C(=O)N[C@@H](CCCCN)C(=O)N[C@@H](CC(C)C)C(=O)NCC(=O)N[C@@H](CCCCN)C(=O)N[C@@H](CCCCN)C(=O)N[C@@H](CC(C)C)C(=O)N[C@@H](CC(C)C)C(=O)N[C@@H](CCCCN)C(=O)N[C@@H](CC(C)C)C(N)=O` [LKKPLKLGKKLLKL]: the MIC – broadly, the least concentration at which growth counts as inhibited – in test [1] stood at 7.07 µM (≈ 11.7 µg/mL); in test [2], 40 µM (≈ 66.4 µg/mL).
Regarding `CC[C@H](C)[C@H](NC(=O)[C@H](CCCN=C(N)N)NC(=O)[C@H](CCCCN)NC(=O)[C@@H](N)CCC(N)=O)C(=O)N[C@@H](CCCN=C(N)N)C(=O)N[C@H](C(=O)N[C@@H](CCCN=C(N)N)C(=O)N[C@@H](CC(C)C)C(=O)N[C@@H](CO)C(=O)N[C@@H](C)C(=O)O)C(C)C` [QKRIRVRLSA], the values for the MIC in test [1], in test [3] and in test [2] were 26.1 µM (≈ 32 µg/mL), 26.1 µM (≈ 32 µg/mL) and more than 52.2 µM, respectively.
As for `CC(=O)N[C@@H](CC(C)C)C(=O)N[C@@H](CCCCN)C(=O)N[C@@H](CCCCN)C(=O)N[C@@H](CC(C)C)C(=O)N[C@@H](CC(C)C)C(=O)N[C@@H](CCCCN)C(=O)N[C@@H](CC(C)C)C(=O)N[C@@H](CC(C)C)C(=O)N[C@@H](CCCCN)C(=O)N[C@@H](CCCCN)C(=O)N[C@@H](CC(C)C)C(=O)N[C@@H](CC(C)C)C(=O)N[C@@H](CCCCN)C(=O)N[C@@H](CC(C)C)C(N)=O` [LKKLLKLLKKLLKL], the MIC in test [1] and in test [2] was 14.1 µM (≈ 24.5 µg/mL) in each case.
In the case of `CC(=O)N[C@@H](CCCCN)C(=O)N[C@@H](CC(C)C)C(=O)N[C@@H](CC(C)C)C(=O)N[C@@H](CCCCN)C(=O)N[C@@H](CC(C)C)C(=O)N[C@@H](CC(C)C)C(=O)N[C@@H](CCCCN)C(=O)N[C@@H](CCCCN)C(=O)N[C@@H](CC(C)C)C(=O)N1CCC[C@H]1C(=O)N[C@@H](CCCCN)C(=O)N[C@@H](CC(C)C)C(=O)N[C@@H](CC(C)C)C(=O)N[C@@H](CCCCN)C(N)=O` [KLLKLLKKLPKLLK], the MIC in test [1] and in test [2] was 40 µM (≈ 68.7 µg/mL) each time.
As to `CC(C)C[C@H](NC(=O)[C@H](CCCCN)NC(=O)[C@H](CC(C)C)NC(=O)[C@H](CC(C)C)NC(=O)[C@H](CCCCN)NC(=O)[C@H](CCCCN)NC(=O)[C@@H](N)CC(C)C)C(=O)NCC(=O)N[C@@H](CCCCN)C(=O)N[C@@H](CCCCN)C(=O)N[C@@H](CC(C)C)C(=O)N[C@@H](CC(C)C)C(=O)N[C@@H](CCCCN)C(=O)N[C@@H](CC(C)C)C(=O)N[C@@H](C)C(=O)NCC(=O)O` [LKKLLKLGKKLLKLAG], the MIC in test [1] came to 2.5 µM (≈ 4.41 µg/mL); in test [2], 5 µM (≈ 8.82 µg/mL).
Turning to `CC(C)C[C@H](NC(=O)[C@H](C)NC(=O)[C@H](CCCCN)NC(=O)[C@H](CC(C)C)NC(=O)[C@H](CC(C)C)NC(=O)[C@H](CCCCN)NC(=O)[C@H](CCCCN)NC(=O)[C@@H](N)CC(C)C)C(=O)N[C@@H](CCCCN)C(=O)N[C@@H](CCCCN)C(=O)N[C@@H](CC(C)C)C(=O)N[C@@H](CC(C)C)C(=O)N[C@@H](CCCCN)C(=O)N[C@@H](CC(C)C)C(=O)N[C@@H](C)C(=O)NCC(=O)O` [LKKLLKALKKLLKLAG], the MIC in test [1] and in test [2] was 10 µM (≈ 17.8 µg/mL) in each case.
As to `CC(C)C[C@H](NC(=O)[C@H](Cc1ccccc1)NC(=O)[C@H](C)NC(=O)[C@H](Cc1c[nH]c2ccccc12)NC(=O)[C@H](Cc1c[nH]c2ccccc12)NC(=O)[C@H](Cc1c[nH]c2ccccc12)NC(=O)[C@H](C)NC(=O)[C@H](Cc1ccccc1)NC(=O)[C@H](CCCN=C(N)N)NC(=O)[C@H](CCCN=C(N)N)NC(=O)[C@@H](N)C(C)C)C(=O)N[C@@H](CCCN=C(N)N)C(=O)N[C@@H](CCCN=C(N)N)C(N)=O` [VRRFAWWWAFLRR], the MIC in test [1] came out at 2 µM (≈ 3.7 µg/mL); with Escherichia coli, 5.4 µM (≈ 9.99 µg/mL); in the test on Staphylococcus aureus it was 2.7 µM (≈ 5 µg/mL).
For `CC[C@H](C)[C@H](NC(=O)[C@H](CCCN=C(N)N)NC(=O)[C@H](CCC(N)=O)NC(=O)[C@@H](NC(=O)[C@@H](NC(=O)[C@H](CCCN=C(N)N)NC(=O)[C@H](CCCCN)NC(=O)[C@@H](N)Cc1ccccc1)[C@@H](C)CC)C(C)C)C(=O)N[C@@H](CCCCN)C(=O)N[C@@H](CC(=O)O)C(=O)N[C@@H](CO)C(=O)N[C@@H](CC(C)C)C(=O)N[C@@H](CCCN=C(N)N)C(=O)O` [FKRIVQRIKDSLR], the MIC is 10 µM (≈ 16.6 µg/mL) in test [1] and more than 40 µM in test [2].
On the same counts, the results for `CC(=O)N[C@@H](CCCCN)C(=O)N1CCC[C@H]1C(=O)N[C@@H](CC(C)C)C(=O)N[C@@H](CCCCN)C(=O)N[C@@H](CC(C)C)C(=O)N[C@@H](CC(C)C)C(=O)N[C@@H](CCCCN)C(=O)N[C@@H](CCCCN)C(=O)N[C@@H](CC(C)C)C(=O)N[C@@H](CC(C)C)C(=O)N[C@@H](CCCCN)C(=O)N[C@@H](CC(C)C)C(=O)N[C@@H](CC(C)C)C(=O)N[C@@H](CCCCN)C(N)=O` [KPLKLLKKLLKLLK] are 7.07 µM (≈ 12.1 µg/mL) and 7.07 µM (≈ 12.1 µg/mL).
On to `CC(C)C[C@H](NC(=O)[C@H](CCCCN)NC(=O)[C@H](CC(C)C)NC(=O)[C@H](CC(C)C)NC(=O)[C@H](CCCCN)NC(=O)[C@H](CCCCN)NC(=O)[C@H](CC(C)C)NC(=O)[C@H](CC(C)C)NC(=O)[C@H](CCCCN)NC(=O)[C@H](C)NC(=O)[C@H](CC(C)C)NC(=O)[C@H](CCCCN)NC(=O)[C@H](CCCCN)NC(=O)[C@@H](N)CC(C)C)C(=O)N[C@@H](C)C(=O)NCC(=O)O` [LKKLAKLLKKLLKLAG], for which the MIC in test [1] and in test [2] was 10 µM (≈ 17.8 µg/mL) each time.
With `CC(=O)N[C@@H](CCCCN)C(=O)N[C@@H](CC(C)C)C(=O)N1CCC[C@H]1C(=O)N[C@@H](CCCCN)C(=O)N[C@@H](CC(C)C)C(=O)N[C@@H](CC(C)C)C(=O)N[C@@H](CCCCN)C(=O)N[C@@H](CCCCN)C(=O)N[C@@H](CC(C)C)C(=O)N[C@@H](CC(C)C)C(=O)N[C@@H](CCCCN)C(=O)N[C@@H](CC(C)C)C(=O)N[C@@H](CC(C)C)C(=O)N[C@@H](CCCCN)C(N)=O` [KLPKLLKKLLKLLK], the MIC in test [1] and in test [2] was 10 µM (≈ 17.2 µg/mL) throughout.
For the molecule `CC(C)C[C@H](NC(=O)[C@H](Cc1ccccc1)NC(=O)[C@H](C)NC(=O)[C@H](Cc1c[nH]c2ccccc12)NC(=O)[C@H](Cc1c[nH]c2ccccc12)NC(=O)[C@H](Cc1c[nH]c2ccccc12)NC(=O)[C@@H]1CCCN1C(=O)[C@H](Cc1ccccc1)NC(=O)[C@H](CCCN=C(N)N)NC(=O)[C@H](CCCN=C(N)N)NC(=O)[C@@H](N)C(C)C)C(=O)N[C@@H](CCCN=C(N)N)C(=O)N[C@@H](CCCN=C(N)N)C(N)=O` [VRRFPWWWAFLRR], the values for the MIC (in test [1]; in the test with Escherichia coli; against Staphylococcus aureus) were 2.83 µM (≈ 5.3 µg/mL), 10.7 µM (≈ 20 µg/mL) and 2.66 µM (≈ 5 µg/mL), respectively.
In the case of `CSCC[C@H](NC(=O)CNC(=O)[C@H](C)NC(=O)[C@H](CCCCN)NC(=O)[C@H](C)NC(=O)[C@H](Cc1ccccc1)NC(=O)[C@H](CCCCN)NC(=O)[C@H](CCCCN)NC(=O)[C@H](CC(C)C)NC(=O)[C@@H](NC(=O)[C@H](CC(=O)O)NC(=O)[C@H](CC(C)C)NC(=O)[C@H](Cc1ccccc1)NC(=O)[C@H](CC(C)C)NC(=O)CN)[C@@H](C)O)C(=O)N[C@@H](CCC(=O)O)C(=O)N[C@@H](C)C(=O)N[C@H](C(=O)N[C@H](C(=O)N[C@@H](CC(N)=O)C(=O)N1CCC[C@H]1C(=O)N[C@@H](CCCCN)C(=O)O)[C@@H](C)O)C(C)C` [GLFLDTLKKFAKAGMEAVTNPK], the minimum inhibitory concentration (MIC) in the test on Escherichia coli and in the test on Staphylococcus aureus was 80 µM (≈ 190 µg/mL) each time.
